Values quoted from earlier work, collected in patent publication US7179253B2, “Method of tattoo removal” (3M Innovative Properties Company, priority 2003, dated 2007).

Test system: tattoo ink pigments in tattooed regions
Conditions: guinea pigs; topical 5% cream started within six hours of tattoo application, continued for seven days

## CC(C)Cn1cnc2c(N)nc3ccccc3c21 [imiquimod, 1-(2-methylpropyl)-1H-imidazo[4,5-c]quinolin-4-amine]
  visible tattoo pigment in the tattooed regions at the conclusion of the treatment period: no pigment of any color was visible
